In brackets after ≈: the same amount, converted by molar mass. Where two headings read alike, the source gives them in different places.
Legend:
S. aureus DSM2569 = assay: MIC, standard microdilution assay, growing S. aureus; assay type: cell-based, Staphylococcus aureus; conditions: Staphylococcus aureus, DSM2569; S. aureus; CA-MHB pH 7.4; read-out: MIC (μM) CA-MHB
Protocol: (§1) Minimal inhibitory concentrations (MICs) were determined using a standard microdilution assay protocol. CA-MHB medium buffered with 40 mM HEPES (pH 7.4) was used to determine the MICs for UPEC, P. aeruginosa, and S. aureus. […] MICs for UPEC were also determined in LPM buffered with 30 mM MES (pH 5.5). For S. flexneri, MICs were determined in tryptic soy broth (TSB). The assay was performed in triplicates.

E. coli CFT073 (UPEC) = assay: MIC, standard microdilution assay, growing UPEC; assay type: cell-based, Escherichia coli; conditions: E. coli, pH 7.4
Protocol: as §1

non-growing UPEC CFT073 [1] = assay: Dilution-regrowth assay (screen, hit validation, dose-response) on stationary-phase UPEC; assay type: cell-based, Escherichia coli; conditions: for EC50: E. coli, pH 7.4, regrowth delay of non-growing bacteria, 1:4 CA-MHB, 24 h treatment, OD600 6 h after 2500-fold dilution, read-out: EC50; for activity in the dilution-regrowth screen: non-growing UPEC, 20 μM; for OD600 at 6hr, Mean: after dilution into drug-free medium
Protocol: The cultures were incubated for 24 h in non-baffled Erlenmeyer flasks at 37 °C with shaking at 200 rpm.
The high-throughput screening (HTS) procedure was based on the protocol by Hazan and colleagues[15] and conducted at the Chemical Biology Consortium Sweden (CBCS) screening facility. […] Each plate included eight wells with 200 nl of 10 mM gatifloxacin, finafloxacin, and kanamycin solutions, along with 8-wells containing 200 nl of DMSO as controls. After 24 h incubation,100 μl of the culture was dispensed into each well of the 384-well plates for screening at a final concentration of 20 μM. The plates were sealed with parafilm and incubated at 37 °C for 24 h in closed humidified boxes, with wet paper towels added to prevent evaporation. […] The plates were incubated at 37 °C for 6 h in humidified boxes, then OD600 was measured using a microplate reader.
For hit validation, bacteria were cultivated, and the dilution-regrowth assay was conducted following the same protocol used in the primary screen. Hit compounds were dispensed into 384-well plates using the Echo® (Labcyte) system, with 200, 100, or 50 nl of a 10 mM solution in DMSO added per well, yielding final screening concentrations of 20, 10, and 5 μM, respectively. OD600 values of regrowing samples were normalized to the mean OD600 of the drug-free control. The testing was conducted in two replicates.
For UPEC, dose–response analysis was conducted at the CBCS screening facility. Bacteria were cultivated, and the dilution-regrowth assay was performed according to the HTS protocol. Compounds were dispensed into 384-well plates using the Echo® (Labcyte) system, and regrowth was assessed by measuring OD600 after 6 h of incubation at 37 °C in humidified boxes. Three biological replicates were performed.
Statistical significance of the drug effects was assessed using a one-way ANOVA followed by Dunnett’s test, comparing each treatment to the drug-free control. Statistical significance of the differences in chemical characteristics between the hit compounds and the Prestwick library was assessed using a Mann–Whitney test. Statistical significance was set at P ≤ 0.05. A five-parameter logistic equation was used for asymmetric sigmoidal curve fitting and for EC50 and IC50 determination. The Venn diagram in Fig. 1F was prepared using BioVenn web application. Characteristics of the chemical and physical properties of Prestwick library compounds were obtained from Supplementary Table S1 from reference. Characteristics of the hit compounds not included in the Prestwick library were retrieved from the PubChem database.

P. aeruginosa DSM1117 = assay: MIC, standard microdilution assay, growing P. aeruginosa; assay type: cell-based, Pseudomonas aeruginosa; conditions: P. aeruginosa, CA-MHB pH 7.4, read-out: MIC (μM) CA-MHB
Protocol: as §1

S. flexneri 5a M90T = assay: MIC in tryptic soy broth, S. flexneri; assay type: cell-based, Shigella flexneri
Protocol: as §1

non-growing UPEC CFT073 [2] = assay: Dose-dependent killing analysis (CFU spot-plating) of stationary-phase UPEC; assay type: cell-based, Escherichia coli; conditions: E. coli in 1:4 CA-MHB (pH 7.4); for Δlog10(CFU/ml): average killing vs before treatment (8.977)
Protocol: To differentiate between these scenarios, we used CFU counting by agar plating to assess the bactericidal effect on non-growing bacteria. […] Conversely, if no significant reduction in CFU is observed, the regrowth delay is due to PAE without killing. […] Fluoroquinolones are known to cause PAE after treatment of growing bacterial cultures.
For survival analysis, bacteria were cultivated as described for the dose–response dilution-regrowth assay. Assays with UPEC were conducted at the CBCS screening facility using 96-well plates with a 200 μl sample volume, and compounds were dispensed using the Echo® (Labcyte) system. P. aeruginosa and S. aureus samples were treated according to the protocol used for the dilution-regrowth experiments. Treated samples were serially diluted 10-fold in PBS, and 10 μl drops were spot-plated onto rectangular LB agar plates using either a Beckman NXP robot (for UPEC) or an Integra VIAFLO96 electronic pipette (for P. aeruginosa and S. aureus). The LB agar plates were incubated overnight at 37 °C and scanned. Colonies were counted at the spots of the lowest dilution where individual colonies could be accurately distinguished. Each colony was manually marked on a separate image layer using the GNU Image Manipulation Program, and counted using NIST’s Integrated Colony Enumerator (NICE 1.4) software. The experiments were performed in three biological replicates.

## CC[C@H]1OC(=O)C[C@@H](O)[C@H](C)[C@@H](O[C@@H]2O[C@H](C)[C@@H](O[C@H]3C[C@@](C)(O)[C@@H](O)[C@H](C)O3)[C@H](N(C)C)[C@H]2O)[C@@H](CC=O)C[C@@H](C)C(=O)/C=C/C(C)=C/[C@@H]1CO[C@@H]1O[C@H](C)[C@@H](O)[C@@H](OC)[C@H]1OC [Tylosin]
S. aureus DSM2569
  MIC: 1 µM (≈ 0.916 µg/mL)
E. coli CFT073 (UPEC); Escherichia coli, 1:4 diluted CA-MHB, read-out: MIC (μM) 1:4 CA-MHB
  MIC: 160 µM (≈ 147 µg/mL)
E. coli CFT073 (UPEC); Escherichia coli, CA-MHB, read-out: MIC (μM) CA-MHB
  MIC: 160 µM (≈ 147 µg/mL)
non-growing UPEC CFT073 [1]; Escherichia coli
  EC50: 7.28 µM
P. aeruginosa DSM1117; Pseudomonas aeruginosa, DSM1117
  MIC: > 160 µM
S. flexneri 5a M90T; Shigella flexneri, 5AM90T, read-out: MIC (μM) TSB
  MIC: 128 µM (≈ 117 µg/mL)

## CC[C@H]1OC(=O)[C@H](C)C(=O)[C@H](C)[C@@H](O[C@@H]2O[C@H](C)C[C@H](N(C)C)[C@H]2O)[C@](C)(OC)C[C@@H](C)C(=O)[C@H](C)[C@H]2N(CCCCn3cnc(-c4cccnc4)c3)C(=O)O[C@]12C [telithromycin]
non-growing UPEC CFT073 [1]
  activity in the dilution-regrowth screen: no activity

## colistin
non-growing UPEC CFT073 [1]
  activity in the dilution-regrowth screen: not identified as hits

## CCC[C@H](NC(=O)/C(C#N)=C/c1cccc(Br)n1)c1ccccc1 [Degrasyn]
E. coli CFT073 (UPEC); 1:4 diluted CA-MHB, read-out: MIC (μM) 1:4 CA-MHB
  MIC: >80 µM
E. coli CFT073 (UPEC); CA-MHB with 10 μg/ml efflux pump inhibitor PaβN
  MIC (μM) CA-MHB +PAβN: >80 µM
E. coli CFT073 (UPEC); CA-MHB, read-out: MIC (μM) CA-MHB
  MIC: >80 µM
non-growing UPEC CFT073 [1]; E. coli in 1:4 CA-MHB (pH 7.4), 0.25 μM
  OD600 at 6hr, Mean: 0.603
non-growing UPEC CFT073 [1]; E. coli in 1:4 CA-MHB (pH 7.4), 0.5 μM
  OD600 at 6hr, Mean: 0.604
non-growing UPEC CFT073 [1]; E. coli in 1:4 CA-MHB (pH 7.4), 1 μM
  OD600 at 6hr, Mean: 0.558
non-growing UPEC CFT073 [1]; E. coli in 1:4 CA-MHB (pH 7.4), 2.5 μM
  OD600 at 6hr, Mean: 0.295
non-growing UPEC CFT073 [1]; E. coli in 1:4 CA-MHB (pH 7.4), 5 μM
  OD600 at 6hr, Mean: 0.108
non-growing UPEC CFT073 [1]; E. coli in 1:4 CA-MHB (pH 7.4), 10 μM
  OD600 at 6hr, Mean: 0.069
non-growing UPEC CFT073 [1]; E. coli in 1:4 CA-MHB (pH 7.4), 30 μM
  OD600 at 6hr, Mean: 0.079
non-growing UPEC CFT073 [1]; E. coli in LPM (pH 5.5), 0.25 μM
  OD600 at 6hr, Mean: 0.554
non-growing UPEC CFT073 [1]; E. coli in LPM (pH 5.5), 0.5 μM
  OD600 at 6hr, Mean: 0.565
non-growing UPEC CFT073 [1]; E. coli in LPM (pH 5.5), 1 μM
  OD600 at 6hr, Mean: 0.575
non-growing UPEC CFT073 [1]; E. coli in LPM (pH 5.5), 2.5 μM
  OD600 at 6hr, Mean: 0.579
non-growing UPEC CFT073 [1]; E. coli in LPM (pH 5.5), 5 μM
  OD600 at 6hr, Mean: 0.583
non-growing UPEC CFT073 [1]; E. coli in LPM (pH 5.5), 10 μM
  OD600 at 6hr, Mean: 0.582
non-growing UPEC CFT073 [1]; E. coli in LPM (pH 5.5), 30 μM
  OD600 at 6hr, Mean: 0.588
non-growing UPEC CFT073 [1]
  EC50: 2.22 µM
P. aeruginosa DSM1117
  MIC: >80 µM
S. flexneri 5a M90T; S. flexneri, extracellular bacteria in TSB
  MIC (μM) TSB: >128 µM
non-growing UPEC CFT073 [2]; 0.25 μM
  Log10(CFU/ml), Replicate #1: 9.301 Log10(CFU/ml)
  Log10(CFU/ml), Replicate #2: 8.699 Log10(CFU/ml)
  Log10(CFU/ml), Replicate #3: 9.079 Log10(CFU/ml)
  Δlog10(CFU/ml): -0.049 log10(CFU/ml)
non-growing UPEC CFT073 [2]; 0.5 μM
  Log10(CFU/ml), Replicate #1: 9.279 Log10(CFU/ml)
  Log10(CFU/ml), Replicate #2: 8.505 Log10(CFU/ml)
  Log10(CFU/ml), Replicate #3: 8.602 Log10(CFU/ml)
  Δlog10(CFU/ml): 0.182 log10(CFU/ml)
non-growing UPEC CFT073 [2]; 1 μM
  Log10(CFU/ml), Replicate #1: 9.204 Log10(CFU/ml)
  Log10(CFU/ml), Replicate #2: 8.477 Log10(CFU/ml)
  Log10(CFU/ml), Replicate #3: 9.204 Log10(CFU/ml)
  Δlog10(CFU/ml): 0.016 log10(CFU/ml)
non-growing UPEC CFT073 [2]; 2.5 μM
  Log10(CFU/ml), Replicate #1: 9.204 Log10(CFU/ml)
  Log10(CFU/ml), Replicate #2: 8.845 Log10(CFU/ml)
  Log10(CFU/ml), Replicate #3: 8.301 Log10(CFU/ml)
  Δlog10(CFU/ml): 0.194 log10(CFU/ml)
non-growing UPEC CFT073 [2]; 5 μM
  Log10(CFU/ml), Replicate #1: 8.954 Log10(CFU/ml)
  Log10(CFU/ml), Replicate #2: 6.778 Log10(CFU/ml)
  Log10(CFU/ml), Replicate #3: 7.176 Log10(CFU/ml)
  Δlog10(CFU/ml): 1.341 log10(CFU/ml)
non-growing UPEC CFT073 [2]; 10 μM
  Log10(CFU/ml), Replicate #1: 6.623 Log10(CFU/ml)
  Log10(CFU/ml), Replicate #2: 6.699 Log10(CFU/ml)
  Log10(CFU/ml), Replicate #3: 6.532 Log10(CFU/ml)
  Δlog10(CFU/ml): 2.359 log10(CFU/ml)
